The numbers were not newly measured in PMC2716802 (Structure (London, England : 1993), 2008), which cites them from elsewhere.

No end group written: not given here.

The target of this data set is BoNT/A LC (Clostridium botulinum, UniProt P0DPI0).
BoNT/A LC, sequence (P0DPI0 2-448 limits assumed): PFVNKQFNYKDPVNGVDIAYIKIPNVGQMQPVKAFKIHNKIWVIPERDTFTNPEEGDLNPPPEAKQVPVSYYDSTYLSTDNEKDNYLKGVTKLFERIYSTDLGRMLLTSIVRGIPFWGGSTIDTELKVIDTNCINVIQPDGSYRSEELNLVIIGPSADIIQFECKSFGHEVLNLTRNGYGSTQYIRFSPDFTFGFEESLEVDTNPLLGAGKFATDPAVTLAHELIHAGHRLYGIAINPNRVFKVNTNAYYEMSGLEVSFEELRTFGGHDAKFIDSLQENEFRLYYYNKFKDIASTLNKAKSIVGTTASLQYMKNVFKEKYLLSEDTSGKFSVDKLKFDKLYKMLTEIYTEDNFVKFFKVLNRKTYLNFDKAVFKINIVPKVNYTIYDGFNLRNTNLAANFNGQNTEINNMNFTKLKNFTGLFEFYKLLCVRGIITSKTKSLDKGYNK

In the case of Ac-CRATKML, the Ki (usually a measure of affinity in units of concentration, obtained from inhibition or displacement) is 1900 nM.
